Series [1] can be described thus: Lipophilicity, log D of the compound at pH 7.4 by HPLC analysis. The format is physicochemical. To be noted: buffer.
Series [2] is described as follows: Cytotoxicity against human HepG2 cells assessed as cellular ATP level at 30 uM after 1 day by ATPLite assay relative to control. Format: cell-based. To be noted: read-out: Activity. In general terms: In ATP-based viability assays light output follows the ATP content of the culture.
The subject of series [3] is Rattus norvegicus. Nature of the series: Inhibition of histamine-induced acid secretion in Jcl:SD rat gastric at 1 mg/kg, iv pretreated for 3 mins followed by histamine.2HCl treatment measured after 3 hrs by titration method. Format: functional.
Series [4] deals with hERG (KCNH2) (Homo sapiens, UniProt Q12809). Nature of the series: Inhibition of human ERG expressed in HEK cells at 10 uM at -75 mV holding potential by Whole-cell voltage clamp assay relative to control. The format is cell-based. To be noted: HEK cells expressing human ERG.
The nature of series [5]: Inhibition of H+/K+-ATPase in porcine stomach gastric mucosal microsomes assessed as reduction in inorganic phosphate production using ATP as substrate preincubated for 30 mins followed by ATP addition in presence of KCl by malachite green reagent based colorimetric assay. On the set-up: species or system Sus scrofa.
Series [6] is described as follows: Cytotoxicity against human HepG2 cells assessed as cellular ATP level at 100 uM after 1 day by ATPLite assay relative to control. The format is cell-based. To be noted: read-out: Activity.
Series [7] is described as follows: Dissociation constant, pKa of the compound. Format: physicochemical.

Each structure is given as a SMILES string.

Chain of hERG (KCNH2) (Q12809 whole entry): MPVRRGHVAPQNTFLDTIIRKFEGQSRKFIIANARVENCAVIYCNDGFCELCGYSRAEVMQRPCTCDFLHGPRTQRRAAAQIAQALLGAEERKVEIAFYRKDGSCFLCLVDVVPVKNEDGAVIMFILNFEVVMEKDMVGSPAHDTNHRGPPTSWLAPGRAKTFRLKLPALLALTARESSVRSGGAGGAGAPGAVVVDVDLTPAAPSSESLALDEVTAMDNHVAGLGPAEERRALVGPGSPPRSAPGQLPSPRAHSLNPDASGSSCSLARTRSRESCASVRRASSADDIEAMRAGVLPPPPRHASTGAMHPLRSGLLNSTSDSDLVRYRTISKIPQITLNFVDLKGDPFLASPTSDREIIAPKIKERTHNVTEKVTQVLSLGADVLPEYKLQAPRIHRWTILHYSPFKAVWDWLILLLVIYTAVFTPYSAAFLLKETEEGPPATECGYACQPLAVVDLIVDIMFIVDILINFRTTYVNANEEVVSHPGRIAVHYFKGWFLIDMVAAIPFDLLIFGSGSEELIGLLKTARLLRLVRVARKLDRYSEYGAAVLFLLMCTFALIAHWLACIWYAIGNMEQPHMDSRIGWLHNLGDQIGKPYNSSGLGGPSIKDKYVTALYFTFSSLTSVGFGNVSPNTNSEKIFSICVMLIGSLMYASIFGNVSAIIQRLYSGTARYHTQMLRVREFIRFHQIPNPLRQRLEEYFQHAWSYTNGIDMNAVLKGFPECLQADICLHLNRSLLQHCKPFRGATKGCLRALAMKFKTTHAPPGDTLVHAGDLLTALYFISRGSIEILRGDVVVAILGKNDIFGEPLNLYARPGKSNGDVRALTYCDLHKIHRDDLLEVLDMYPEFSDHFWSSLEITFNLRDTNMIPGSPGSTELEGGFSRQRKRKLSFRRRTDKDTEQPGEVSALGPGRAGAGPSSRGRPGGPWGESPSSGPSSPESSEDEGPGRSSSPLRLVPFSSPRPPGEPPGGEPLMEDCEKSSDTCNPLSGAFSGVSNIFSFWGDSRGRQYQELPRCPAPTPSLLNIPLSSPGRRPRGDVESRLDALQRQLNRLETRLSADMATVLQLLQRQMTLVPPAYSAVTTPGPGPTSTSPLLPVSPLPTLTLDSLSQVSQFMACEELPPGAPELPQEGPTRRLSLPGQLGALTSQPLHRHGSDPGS

Regarding `CNCc1cc(-c2ccccc2)n(S(=O)(=O)c2ccccc2)c1`, the logD in series [1] came to 1.44. Besides, the viability at 24 h, 30 µM in series [2] amounted to 53.8%. For the same molecule, the inhibition in vivo at 1 mg/kg in series [3] was determined as 96%. In addition, the inhibition at 10 µM in series [4] was 87.5%. In addition, in series [5], the IC50 turned out to be 9.4 nM.
Molecule `CNCc1cc(-c2ccccc2C)n(S(=O)(=O)c2ccc(C)cc2)c1` showed a logD in series [1] of 2.12. In addition, the viability at 24 h, 30 µM in series [2] turned out to be 0.3%. Also, the inhibition in vivo at 1 mg/kg in series [3] was 92%. Moreover, the IC50 in series [5] was determined as 62 nM.
With `CNCc1cc(-c2cccnc2F)n(S(=O)(=O)c2cccc(OC)c2)c1`, the viability at 24 h, 100 µM in series [6] is 30.6%. In series [1], this molecule showed a logD of 0.1. Moreover, the inhibition in vivo at 1 mg/kg in series [3] amounted to 92%. For the same molecule, the inhibition at 10 µM in series [4] is 72.8%. The IC50 in series [5] came out at 28 nM.
For the molecule `CNCc1cc(-c2cncnc2)n(S(=O)(=O)c2ccccc2)c1`, the viability at 24 h, 100 µM in series [6] was 97.5%. In series [1], this molecule showed a logD of -0.4. In addition, the inhibition at 10 µM in series [4] came to 24.2%. Moreover, the IC50 in series [5] was 410 nM.
As for `CNCc1cc(-c2cccnc2Cl)n(S(=O)(=O)c2ccccc2)c1`, the viability at 24 h, 100 µM in series [6] was 76.3%. This molecule returned a logD in series [1] of -0.1. In addition, in series [3], the inhibition in vivo at 1 mg/kg was 99%. In addition, the inhibition at 10 µM in series [4] came out at 40.9%. For the same molecule, the IC50 in series [5] is 43 nM.
Take `CNCc1cc(-c2ccccc2F)n(S(=O)(=O)c2ccc(C)cc2)c1`: the pKa in series [7] was 9.48. In series [1], this molecule came in with a logD of 1.56. Also, the viability at 24 h, 30 µM in series [2] stood at 8%. The inhibition in vivo at 1 mg/kg in series [3] amounted to 91%. Also, the IC50 in series [5] was 34 nM.
Consider `CNCc1cc(-c2cccnc2F)n(S(=O)(=O)c2ccccn2)c1`, for which the viability at 24 h, 100 µM in series [6] stood at 78.6%. Moreover, the logD in series [1] was found to be 0.05. The inhibition in vivo at 1 mg/kg in series [3] was found to be 81%. Besides, the IC50 in series [5] was 120 nM.
Consider `CNCc1cc(-c2cccnc2F)n(S(=O)(=O)c2ccco2)c1`, for which the viability at 24 h, 100 µM in series [6] is 68.7%. Moreover, the log distribution coefficient (logD) in series [1] is -1.15. Also, the inhibition in vivo at 1 mg/kg in series [3] is 74%. The same molecule registered an inhibition at 10 µM in series [4] of 49.1%. The IC50 in series [5] came out at 59 nM.
The corresponding values for `CNCc1cc(-c2cccnc2F)n(S(=O)(=O)c2cccs2)c1` are 74.9%, -0.69, 96%, 63% and 32 nM.
In the case of `CNCc1cc(-c2cccc(F)c2)n(S(=O)(=O)c2ccc(C)cc2)c1`, in series [7], the pKa was found to be 9.31. In addition, the logD in series [1] came out at 1.98. Moreover, the viability at 24 h, 30 µM in series [2] stood at 0.6%. Moreover, the inhibition in vivo at 1 mg/kg in series [3] is 77%. In series [5], the IC50 was 19 nM.
As for `CNCc1cc(-c2cccnc2C)n(S(=O)(=O)c2cccnc2)c1`, the viability at 24 h, 100 µM in series [6] stood at 107%. The same molecule gave a logD in series [1] of 0.06. Also, in series [3], the inhibition in vivo at 1 mg/kg is -41%. In series [5], the IC50 stood at 250 nM.
Molecule `CNCc1cc(-c2ccccc2C(F)(F)F)n(S(=O)(=O)c2ccc(C)cc2)c1` showed a logD in series [1] of 1.94. The viability at 24 h, 30 µM in series [2] was determined as 0.5%. In addition, the inhibition in vivo at 1 mg/kg in series [3] is 86%. Besides, the IC50 in series [5] amounted to 88 nM.
`CNCc1cc(-c2ccccc2F)n(S(=O)(=O)c2cccnc2)c1` [VONOPRAZAN]: in series [7], the pKa worked out at 9.3. Besides, in series [1], the logD came to 0.39.
`CNCc1cc(-c2ccccc2)n(S(=O)(=O)c2cccnc2)c1` registered a log distribution coefficient (logD) in series [1] of 0.73.
Take `CNCc1cc(-c2cccnc2F)n(S(=O)(=O)c2ccsc2)c1`: the viability at 24 h, 100 µM in series [6] was found to be 64%. Moreover, the logD in series [1] was -0.83. Moreover, in series [3], the inhibition in vivo at 1 mg/kg was determined as 98%. In series [4], this molecule came in with an inhibition at 10 µM of 60%. For the same molecule, the IC50 in series [5] came to 32 nM.
As to `CNCc1cc(-c2cccnc2Cl)n(S(=O)(=O)c2cccnc2)c1`, in series [6], the viability at 24 h, 100 µM amounted to 82.9%. In series [1], this molecule displayed a logD of -0.5. In addition, in series [3], the inhibition in vivo at 1 mg/kg came to 92%. This molecule registered an inhibition at 10 µM in series [4] of 10.6%. The IC50 in series [5] came out at 120 nM.
`CNCc1cn(S(=O)(=O)c2cccnc2)c(-c2cccnc2F)c1Cl`: in series [6], the viability at 24 h, 100 µM was 64.5%. The same molecule showed a logD in series [1] of 0.48. The inhibition in vivo at 1 mg/kg in series [3] was 95%. Besides, the inhibition at 10 µM in series [4] stood at 41.3%. Moreover, the IC50 in series [5] is 99 nM.
Taken in the same sequence, the figures for `CNCc1cc(-c2cccnc2F)n(S(=O)(=O)c2ccc(OC)nc2)c1` were 47.6%, 0.24, 97%, 33.1% and 40 nM.
In the case of `CNCc1cc(-c2cnccc2C)n(S(=O)(=O)c2cccnc2)c1`, the viability at 24 h, 100 µM in series [6] was 86%. This molecule came in with a logD in series [1] of -0.51. In series [3], the inhibition in vivo at 1 mg/kg is -54%. In series [4], this molecule registered an inhibition at 10 µM of 8.3%. Also, in series [5], the IC50 stood at 230 nM.
Taken in the same sequence, the figures for `CNCc1cc(-c2cccnc2F)n(S(=O)(=O)c2cccc(C#N)c2)c1` were 46.7%, -0.36, 99%, 46.7% and 89 nM.
The corresponding values for `CNCc1cn(S(=O)(=O)c2cccnc2)c(-c2cccnc2F)c1C` are 47.1%, -0.4, 93%, 30.3% and 220 nM.
Taken in the same sequence, the figures for `CNCc1cc(-c2cccnc2F)n(S(=O)(=O)c2ccoc2)c1` were 77.4%, -1.31, 82%, 59.3% and 92 nM.
On to `CNCc1cc(-c2ccncc2F)n(S(=O)(=O)c2cccnc2)c1`, for which the viability at 24 h, 100 µM in series [6] came to 78.8%. Also, the logD in series [1] is -0.34. Further, the inhibition in vivo at 1 mg/kg in series [3] stood at 48%. In series [4], the inhibition at 10 µM worked out at 18.8%. Also, the IC50 in series [5] was 290 nM.
Turning to `CNCc1cc(-c2ncccc2C)n(S(=O)(=O)c2cccnc2)c1`, the viability at 24 h, 100 µM in series [6] stood at 88.7%. Also, the logD in series [1] was found to be 0.53. In addition, in series [3], the inhibition in vivo at 1 mg/kg was 5%. In addition, the IC50 in series [5] is 1300 nM.
For `CNCc1cc(-c2cccnc2F)n(S(=O)(=O)c2cccc(F)c2)c1`, in series [6], the viability at 24 h, 100 µM was determined as 65.9%. The logD in series [1] amounted to 0.23. Also, in series [3], the inhibition in vivo at 1 mg/kg was 99%. This molecule also displayed an inhibition at 10 µM in series [4] of 56.2%. The IC50 in series [5] was determined as 33 nM.
As to `CNCc1cc(-c2ccccn2)n(S(=O)(=O)c2ccccc2)c1`, the viability at 24 h, 100 µM in series [6] amounted to 91.2%. Besides, the logD in series [1] worked out at 0.28. This molecule also had an inhibition at 10 µM in series [4] of 48%. Besides, the IC50 in series [5] came out at 120 nM.
As for `CNCc1cc(-c2cccnc2F)n(S(=O)(=O)c2ccccc2)c1`, the viability at 24 h, 100 µM in series [6] stood at 59.9%. In series [1], the logD is -0.09. For the same molecule, the inhibition in vivo at 1 mg/kg in series [3] worked out at 99%. This molecule registered an inhibition at 10 µM in series [4] of 57%. Besides, the IC50 in series [5] amounted to 26 nM.
With `CNCc1cc(-c2cccnc2C#N)n(S(=O)(=O)c2cccnc2)c1`, the viability at 24 h, 100 µM in series [6] was found to be 85.3%. In addition, the logD in series [1] was -1.29. Further, in series [3], the inhibition in vivo at 1 mg/kg is 48%. This molecule yielded an inhibition at 10 µM in series [4] of 1.9%. In addition, the IC50 in series [5] was 530 nM.

One may read the logD as the decadic logarithm of the distribution of all forms, ionised or not, between an organic phase and buffer at a given pH. A high value points to higher lipophilicity. As a reminder, the inhibition in vivo is the relative decrease from the control value, in per cent. As a reminder, the inhibition is the drop in the measured response relative to a control, in per cent. What is called IC50 is the concentration that inhibits the measured activity by half. By pKa is commonly meant the negative logarithm of the acid dissociation constant. A higher pKa goes with a group that holds its proton tightly.

For the origin of these results see ChEMBL document CHEMBL4020734, “Identification of a novel fluoropyrrole derivative as a potassium-competitive acid blocker with long duration of action” (Bioorg Med Chem, 2017).
